{
  "source": "patent US20260318831A1",
  "about": "(University of Cincinnati, priority 2023, published 2026)",
  "key": {"[1]": {"assay": "n-octanol/water partition coefficient by shake-flask ultraviolet spectrophotometry", "type": "physicochemical", "settings": "room temperature, read-out: n-octanol/water partition coefficient (Log P)", "description": "The measurements of hydrophilicity. Hydrophilicity was determined by a shake-flask ultraviolet spectrophotometry method to measure the n-octanol/water partition coefficients (Log P). First, 25 mL of n-octanol and 25 mL of water were mixed at room temperature. After 24 h, the standard solutions of the sample (10 μM) were prepared by using the preceding saturated n-octanol phase and water phase solution, respectively. Later, the test solutions were prepared by mixing 10 ml of standard solution in n-octanol and 10 ml of standard solution in water. After shaking, the mixture of test solution was centrifuged for 5 min. The n-octanol phase layer was separated from the water phase layer and the absorbance of the two layers was measured by Agilent Cary 8453 spectrophotometer. Based on the Beer-Lambert law, the concentrations of the sample in the n-octanol phase (Co) and the water phase (Cw) were calculated. Finally, the n-octanol/water partition coefficients (Log P) were further calculated by using the following equation: […]"}, "[2]": {"tested_on": "HeLa cells", "assay": "CCK-8 cell viability and cytotoxicity assay", "type": "cell-based", "settings": "within 24 h incubation, 0~10 μM", "description": "In some aspects, the probes of the present disclosure can be administered to living cells, either in vitro or in vivo. To take advantage of the absorption and emission spectra of PyQPMe, this probe was administered in high-resolution microscopy for living cells. The toxicity of PyQPMe was examined at first before characterizing its imaging properties. Cell Counting Kit-8 (CCK-8) was used to investigate the viability of HeLa cells stained with PyQPMe. […] Next, PyQPMe was characterized by Leica Stellaris Confocal Microscope in the LIGHTNING module for high-resolution imaging. […] The signal tended to be endolysosomes because endolysosomes have a low pH range from 4.7 to 6.3. […] Since low temperatures can inhibit endocytosis, experiments at a lower temperature were performed.\nCell viability and cytotoxicity assay. […] The viability was determined by adding 10 μL reagent from a cell counting kit-8 (CCK-8) (Dojindo Molecular Technologies, Inc.) and incubating at 37° C. for 1 h. CCK-8 solution was added to each well and the OD value for each well was read at wavelength 490 nm on a microplate reader (BioTek Instruments, Inc., USA). The interference of absorbance from PyQPMe at 490 nm was minimal compared to the CCK-8 reagent during measurement."}, "[3]": {"tested_on": "endolysosomes in HeLa cells", "assay": "Dynamics of PyQPMe-stained endolysosomes (puncta counting)", "type": "cell-based", "description": "FIGS. 5A-5H depict the characterization of dynamics of PyQPMe-stained endolysosomes. FIG. 5A. Confocal images of HeLa cells stained with PyQPMe following treatment with or without Wortmannin for 24 h. FIG. 5B. Schematic illustration of the effect of Wortmannin which inhibits the conversion from early endosomes into late endosomes. FIG. 5C. Quantification of total endolysosomes and late endosomes/lysosomes in PyQPMe-stained HeLa cells with or without Wortmannin treatment. FIG. 5D. The ratio of the number of late endosomes/lysosomes to total endolysosomes in PyQPMe-stained HeLa cells treated with or without Wortmannin. FIG. 5E. Confocal images of HeLa cells stained with PyQPMe for 10 min and 60 min. FIG. 5F. The mean red puncta fluorescence intensity of PyQPMe-stained HeLa cells for 10 min and 60 min incubation. FIG. 5G. Quantification of total endolysosomes and late endosomes/lysosomes in PyQPMe-stained HeLa cells for 10 min and 60 min. FIG. 5H. The ratio of the number of late endosomes/lysosomes to total endolysosomes in PyQPMe-stained HeLa cells for 10 min and 60 min. Data are given as M±SEM (n=10 independent samples from 10 cells for each statistical analysis); the statistical differences were analyzed by Student's t-test, p<0.05 is considered to statistical significant (** p≤0.01; *** p≤0.001; **** p≤0.0001; ns p>0.05).\nBecause of the popularity of quantitative cell biology, it is important to design powerful tools that can digitize individual cells and subcellular organelles to elucidate biological problems in detail. With its great pH response, long-term photostability, and excellent signal-to-noise ratio for high-resolution imaging, PyQPMe was successfully used to track the dynamics of endolysosomes within cells by counting the number of puncta fluorescence signals in both green and red channels (FIG. 5A).\nNext, the effects of different incubation time on the endocytic pathway were tested.\n(§1) Leica Stellaris 8 Confocal imaging. High-resolution images were acquired on a commercial Leica Stellaris 8 Confocal Microscope under LIGHTNING mode. Laser powers were set at 10% intensity for 405 nm and 640 nm channels. The objective was 63×/1.4. High-resolution images were captured from the randomly selected field of view and analyzed with Leica LAS X and ImageJ software. All the images were exported on the Auto scale of the Leica LAS X software. Cells were seeded on glassed-bottomed cell dishes (MatTek) for 24 hours. Cells stained with PyQPMe (20 nM, 10 min) were treated with Wortmannin (1 μM, 24 h), CCCP ([…], 24 h), rapamycin (0.5 μM, 24 h), chloroquine (25 μM, 30 min), and NH4Cl (50 mM, 30 min). All PCC values were analyzed in the CellProfiler."}, "[4]": {"tested_on": "endolysosomes in HeLa cells", "assay": "Dual-channel confocal imaging of PyQPMe-stained endolysosomes, co-stained with LTDR", "type": "cell-based", "description": "Next, imaging studies of PyQPMe were performed under a dual channel mode with the same excitation of 405 nm (green channel, emission range of 470-530 nm; red channel, emission range of 610-680 nm). Due to the strong green emission properties of PyQPMe over a wide pH range, many puncta fluorescence appeared throughout the cell in the green channel image (FIG. 3A). While in the red channel image, there is less puncta fluorescence in the cell because PyQPMe only emits red light at pH values below 6. Therefore, this imaging property of PyQPMe at different channels can guide one to track different stages of endocytosis. Images were randomly zoomed in and their fluorescence intensity was compared. […] Further, the average diameter of PyQPMe red spots is around 0.6 μm, which is in line with the reported size of lysosomes. To further verify the targeting ability of PyQPMe, the cells were co-stained with commercial lysosome dye Lyso-Tracker Deep Red (LTDR) and imaged under a deep red channel (excitation of 640 nm, emission range of 690-740 nm).\nas §1"}},
  "data": [
    {"compound": "CN1CCN(c2ccc(/C=C/c3ccc4cc(-c5ccncc5)ccc4[n+]3C)cc2)CC1", "note": "[PyQPMe, (E)-1-methyl-2-(4-(4-methylpiperazin-1-yl)styryl)-6-(pyridin-4-yl)quinolin-1-ium]", "values": [
      {"measurement": "logP at 10 µM", "setting": "[1]", "result": "~-0.65"},
      {"measurement": "effect on viability of HeLa cells", "setting": "[2]", "result": "no effects on the viability of HeLa cells"},
      {"measurement": "intensity of puncta fluorescence in red channel", "setting": "[3]; 60 min vs 10 min incubation", "result": "increased during 60 min incubation"},
      {"measurement": "number of total endolysosomes and late endosomes/lysosomes detected", "setting": "[3]; 60 min vs 10 min incubation", "result": "more PyQPMe-stained total endolysosomes and late endosomes/lysosomes were simultaneously detected"},
      {"measurement": "percentage of late endosomes/lysosomes in total endolysosomes", "setting": "[3]; regardless of incubation time (10 min, 60 min)", "result": "remained stable"},
      {"measurement": "ratio of red to green fluorescence intensity, early endosomes", "setting": "[4]; ex 405 nm, early endosomes", "result": "very low ratio of red to green fluorescence intensity"},
      {"measurement": "ratio of red to green fluorescence intensity, late endosomes/lysosomes", "setting": "[4]; ex 405 nm, late endosomes/lysosomes", "result": "higher than 1"},
      {"measurement": "PCC with LTDR, green channel", "setting": "[4]; green channel particles vs deep red channel of LTDR", "result": 0.46},
      {"measurement": "average diameter of red spots", "setting": "[4]; red channel", "result": "around 0.6 μm"},
      {"measurement": "Pearson correlation coefficient (PCC) with LTDR, red channel", "setting": "[4]; red channel puncta vs deep red channel of LTDR", "result": "about 0.70"},
      {"measurement": "pH below which red light is emitted", "setting": "[4]; red channel, 610-680 nm", "result": "below 6"}
    ]}
  ]
}
